pIC50: −log10 of the molar value.
Tests used:
[1] = system: Jurkat; test: MTS proliferation assay, Jurkat; assay type: cell-based, human; details: 72 h incubation, read-out: MTS proliferation assay IC 50 Jurkat
Procedure, shortened: (§1)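 Cells were seeded 24 h before treatment and exposed to compound at 10, 3, 1 and 0.3 μM final for 72 h at 37 °C, 7.5% CO2 in RPMI-1640 with 5% or 10% FCS. Viability was read by MTS reagent (3 h) as absorbance at 492 nm.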

[2] = system: Jily; test: MTS proliferation assay, Jily; assay type: cell-based; details: 72 h incubation, read-out: MTS proliferation assay IC 50 Jily
Procedure, shortened: (§2)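 Cells in RPMI-1640 with 5% or 10% FCS, 2-mercaptoethanol and glutamine were seeded 24 h before treatment with compound at final 10, 3, 1 and 0.3 μM. After 72 h at 37° C and 7.5% CO2, MTS reagent was added for 3 h and absorbance read at 492 nm.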

[3] = system: HT1080; test: MTS proliferation assay, HT1080; assay type: cell-based, human; details: HT1080, 72 h incubation; read-out: MTS proliferation assay IC 50 HT1080
Procedure, shortened: as §1

[4] = system: HeLa; test: MTS proliferation assay, HeLa; assay type: cell-based, human; details: 72 h incubation, read-out: MTS proliferation assay IC 50 HeLa
Procedure, shortened: as §1

[5] = system: MRC5; test: MTS proliferation assay, MRC5; assay type: cell-based; details: MRC5, 72 h incubation; read-out: MTS proliferation assay IC 50 MRC5
Procedure, shortened: as §2

[6] = system: Jurkat; test: PI staining for cell cycle distribution, Jurkat; assay type: cell-based, human; set-up: key: 0: no effect; 1: weak effect; 2: strong effect; details: Jurkat 3 μM, 24 h; for PI staining for cell cycle distribution, G2M: cell population arrested in G2M phase; for PI staining for cell cycle distribution, subG1: subG1 peak indicative for DNA fragmentation
Protocol: (§3) Cell lines are cultured in RPMI-1640 tissue culture medium containing either 5% or 10% fetal calf serum, 0.05 mM 2-mercaptoethanol, 2 mM glutamine and penicillin/streptomycin 50 μg/ml (complete medium) (Sigma, Buchs, Switzerland). General growth conditions are 37° C. and 7.5% CO2.
(§4) The following human cell lines (either EGFP transfected or not) are being used: HeLa (ATCC: CCL-2), KB (ATCC: CCL-17), MCF7 (ATCC: HTB-22), SK-BR-3 (ATCC: HTB-30), SK-Mel 1 (ATCC: HTB-67), SK-Mel 28 (ATCC: HTB-72), PC-3 (ATCC: CRL-1435), SW 480 (ATCC: CCL-228), NCl-H460 (ATCC: HTB-177), NCl-H1792 (ATCC: CRL-5895), HT1080 (ATCC: CCL-21), Jurkat (ATCC: TIB-152), Ramos (ATCC: CRL-1596), Raji (ATCC: CCL-86), H9 (ATCC: HTB-176), Hut78 (ATCC: TIB-161), K562 (ATCC: CCL 243), HL-60 (ATCC: CCL 240), U-87MG (ATCC: HTB-14), HepG2 (ATCC: HB-8065), U-2 OS (ATCC: HTB-96), Saos-2 (ATCC: HTB-85), U937 (ATCC: CRL 1593), Hs 578T (ATCC: HTB 126), HBL-100 (ATCC: HTB 124), Molt-4 (ATCC: CRL 1582).
(§5) 1-2*10^5 cells are seeded into 24 well tissue culture plates and incubated for 24 h prior to compound addition. Compounds are added for 24 h in a final concentration of 3 μM or 10 μM. Adherent cells are harvested by trypsinization. The cell suspensions are fixed by adding 2 parts ice cold ethanol 100% while vortexing. Then the samples are stored for >2 h at −20° C. Subsequently the cells are washed with PBS once and resuspended in 250 μl PBS containing 50 μg/ml PI (Calbiochem # 537059), then the samples are incubated at 37° C. for 30 minutes and subsequently analyzed on a FACSCalibur™ monitoring linear PI fluorescence activity on FL2. The readout allows the detection of a possible direct or indirect influence of the tested compounds on the cell cycle. The following events can occur: a) Generation of a subG1 peak indicative for DNA fragmentation, b) increase of the cell population arrested in G2M phase. Both events are scored by 1 for weak and 2 for strong occurrence. 0 indicates no occurrence at all.

[7] = system: HeLa; test: PI staining for cell cycle distribution, HeLa; assay type: cell-based, human; set-up: key: 0: no effect; 1: weak effect; 2: strong effect; details: HeLa 10 μM, 24 h; for PI staining for cell cycle distribution, G2M: cell population arrested in G2M phase; for PI staining for cell cycle distribution, subG1: subG1 peak indicative for DNA fragmentation
Protocol: as §3, §4, §5

[8] = system: adherent cells or suspension cells; test: Hoechst 33342 nuclear staining (fraction of apoptotic nuclei); assay type: cell-based; set-up: key: 0 relating to no activity; 1 relating to weak activity comprising less than 70% of the cells; score 2 relating to strong activity comprising more than 70% of the cells

Row | SMILES | pIC50 [1] | pIC50 [4] | pIC50 [5] | PI staining for cell cycle distribution, G2M [6] | PI staining for cell cycle distribution, subG1 [6] | PI staining for cell cycle distribution, G2M [7] | PI staining for cell cycle distribution, subG1 [7] | Hoechst 33342 nuclear staining score ([8]; H460, conc 0.01 μm) | Hoechst 33342 nuclear staining score ([8]; H460, conc 0.1 μm) | Hoechst 33342 nuclear staining score ([8]; H460, conc 1 μm) | Hoechst 33342 nuclear staining score ([8]; HeLa, conc 0.01 μm) | Hoechst 33342 nuclear staining score ([8]; HeLa, conc 0.1 μm) | Hoechst 33342 nuclear staining score ([8]; HeLa, conc 1 μm) | Hoechst 33342 nuclear staining score ([8]; Jily, conc 0.01 μm) | Hoechst 33342 nuclear staining score ([8]; Jily, conc 0.1 μm) | Hoechst 33342 nuclear staining score ([8]; Jily, conc 1 μm) | Hoechst 33342 nuclear staining score ([8]; Jurkat, conc 0.01 μm) | Hoechst 33342 nuclear staining score ([8]; Jurkat, conc 0.1 μm) | Hoechst 33342 nuclear staining score ([8]; Jurkat, conc 1 μm) | Hoechst 33342 nuclear staining score ([8]; MRC5, conc 0.01 μm) | further results
1 | N#CCCNc1nonc1-c1nc2ccccc2n1CC(=O)c1ccc(N)cc1 [Example 58] | > 8.00 | 7.00 to 8.00 | > 8.00 | 0 | 0 | 2 | 0 | 2 (score 2 relating to strong activity comprising more than 70% of the cells) | 2 (score 2 relating to strong activity comprising more than 70% of the cells) | 2 (score 2 relating to strong activity comprising more than 70% of the cells) | 2 (score 2 relating to strong activity comprising more than 70% of the cells) | 2 (score 2 relating to strong activity comprising more than 70% of the cells) | 2 (score 2 relating to strong activity comprising more than 70% of the cells) | 2 (score 2 relating to strong activity comprising more than 70% of the cells) | 2 (score 2 relating to strong activity comprising more than 70% of the cells) | 2 (score 2 relating to strong activity comprising more than 70% of the cells) | 2 (score 2 relating to strong activity comprising more than 70% of the cells) | 2 (score 2 relating to strong activity comprising more than 70% of the cells) | 2 (score 2 relating to strong activity comprising more than 70% of the cells) | 1 (1 relating to weak activity comprising less than 70% of the cells) | pIC50 [2]: > 8.00; pIC50 [3]: > 8.00; Hoechst 33342 nuclear staining score ([8]; MRC5, conc 0.1 μm): 2 (score 2 relating to strong activity comprising more than 70% of the cells); Hoechst 33342 nuclear staining score ([8]; MRC5, conc 1 μm): 2 (score 2 relating to strong activity comprising more than 70% of the cells); Hoechst 33342 nuclear staining score ([8]; PBLs, conc 0.01 μm): 0; Hoechst 33342 nuclear staining score ([8]; PBLs, conc 0.1 μm): 0; Hoechst 33342 nuclear staining score ([8]; PBLs, conc 1 μm): 0
2 | Nc1nonc1-c1nc2ccccc2n1CC(=O)c1ccc(Cl)cc1 [Example 16] | 6.00 to 7.00 | 6.00 to 7.00 | 7.00 to 8.00 | 0 | 0 | 2 | 0 | 0 | 2 (score 2 relating to strong activity comprising more than 70% of the cells) | 2 (score 2 relating to strong activity comprising more than 70% of the cells) | 0 | 2 (score 2 relating to strong activity comprising more than 70% of the cells) | 2 (score 2 relating to strong activity comprising more than 70% of the cells) | 0 | 2 (score 2 relating to strong activity comprising more than 70% of the cells) | 2 (score 2 relating to strong activity comprising more than 70% of the cells) | 0 | 2 (score 2 relating to strong activity comprising more than 70% of the cells) | 2 (score 2 relating to strong activity comprising more than 70% of the cells) | 0 | pIC50 [2]: 7.00 to 8.00; pIC50 [3]: 7.00 to 8.00; Hoechst 33342 nuclear staining score ([8]; MRC5, conc 0.1 μm): 2 (score 2 relating to strong activity comprising more than 70% of the cells); Hoechst 33342 nuclear staining score ([8]; MRC5, conc 1 μm): 2 (score 2 relating to strong activity comprising more than 70% of the cells); Hoechst 33342 nuclear staining score ([8]; PBLs, conc 0.01 μm): 0; Hoechst 33342 nuclear staining score ([8]; PBLs, conc 0.1 μm): 0; Hoechst 33342 nuclear staining score ([8]; PBLs, conc 1 μm): 0
3 | COc1ccc(C(=O)Cn2c(-c3nonc3N)nc3ccccc32)cc1 [Example 19] | 7.00 to 8.00 | 6.00 to 7.00 | 6.00 to 7.00 | 0 | 0 | 2 | 0 | 0 | 0 | 2 (score 2 relating to strong activity comprising more than 70% of the cells) | 0 | 1 (1 relating to weak activity comprising less than 70% of the cells) | 2 (score 2 relating to strong activity comprising more than 70% of the cells) | 0 | 2 (score 2 relating to strong activity comprising more than 70% of the cells) | 2 (score 2 relating to strong activity comprising more than 70% of the cells) | 0 | 2 (score 2 relating to strong activity comprising more than 70% of the cells) | 2 (score 2 relating to strong activity comprising more than 70% of the cells) | 0 | Hoechst 33342 nuclear staining score ([8]; MRC5, conc 0.1 μm): 0; Hoechst 33342 nuclear staining score ([8]; MRC5, conc 1 μm): 2 (score 2 relating to strong activity comprising more than 70% of the cells); Hoechst 33342 nuclear staining score ([8]; PBLs, conc 0.01 μm): 0; Hoechst 33342 nuclear staining score ([8]; PBLs, conc 0.1 μm): 0; Hoechst 33342 nuclear staining score ([8]; PBLs, conc 1 μm): 0
